What was measured:
[1] = tested on: Glo-Response ARE-luc2P HEK293 cell line; assay: ARE luciferase reporter cell-based assay; details: Homo sapiens, HEK293, 24 h, average of results obtained;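 further: luciferase signal tracks Nrf2 activation of the ARE once compounds disrupt KEAP1-Nrf2 binding, read with One-Glo reagent, DMSO serving as low control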
[2] = target: Kelch domain of human KEAP1 (321-624 aa) (Homo sapiens (Human), UniProt Q14145); assay: KEAP1 KELCH ThermoFluor binding assay; details: KEAP Kelch […], 1,8-ANS, pH 7.0, average of results obtained, read-out: Tf Kd;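 further: Ligand-induced melting temperature shift of E. coli-expressed KEAP1 Kelch protein, Kd estimated from concentration-response curves of ΔTm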
Sequence of Kelch domain of human KEAP1 (321-624 aa) (Q14145 321-624): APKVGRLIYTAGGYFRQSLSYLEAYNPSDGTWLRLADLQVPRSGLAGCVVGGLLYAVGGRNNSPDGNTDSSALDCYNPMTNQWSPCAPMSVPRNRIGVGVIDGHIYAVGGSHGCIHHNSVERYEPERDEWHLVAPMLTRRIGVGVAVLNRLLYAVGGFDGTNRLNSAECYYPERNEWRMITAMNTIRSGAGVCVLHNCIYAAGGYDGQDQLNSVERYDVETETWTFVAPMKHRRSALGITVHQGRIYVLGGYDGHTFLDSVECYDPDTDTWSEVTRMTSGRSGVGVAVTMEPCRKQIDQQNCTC

Row | Kd [2] [nM] | Compound | EC50 [1] [nM]
1 | < 1 | CCn1nnc2c(C)c(C(CC(=O)O)c3ccc(C)c(CN4CC5(COC5)Oc5ncccc5S4(=O)=O)c3)ccc21 (stereo not shown) [Example 252, 3-(3-((1′,1′-Dioxidospiro[oxetane-3,4′-pyrido[2,3-b][1,4,5]oxathiazepin]-2′(3′H)-yl)methyl)-4-methylphenyl)-3-(1-ethyl-4-methyl-1H-benzo[d][1,2,3]triazol-5-yl)propanoic Acid] | 21
2 | < 1 | Cc1ccc(C(CC(=O)O)c2ccn3c(C(F)(F)F)nnc3c2)cc1CN1C[C@@H]2CCCN2c2ncccc2S1(=O)=O (stereo partly drawn) [Example 253, 3-(3-(((S)-5,5-Dioxido-7a,8,9,10-tetrahydropyrido[2,3-f]pyrrolo[2,1-d][1,2,5]thiadiazepin-6(7H)-yl)methyl)-4-methylphenyl)-3-(3-(trifluoromethyl)-[1,2,4]triazolo[4,3-a]pyridin-7-yl)propanoic Acid] | 1170
3 | < 1 | CC[C@@H]1CN(Cc2cc(C(CC(=O)O)c3ccn4c(C(F)(F)F)nnc4c3)ccc2C)S(=O)(=O)c2cccnc2O1 (stereo partly drawn) [Example 256, 3-(3-(((R)-4-Ethyl-1,1-dioxido-3,4-dihydro-2H-pyrido[2,3-b][1,4,5]oxathiazepin-2-yl)methyl)-4-methylphenyl)-3-(3-(trifluoromethyl)-[1,2,4]triazolo[4,3-a]pyridin-7-yl)propanoic Acid] | 379
4 | < 1 | Cc1ccc(C(CC(=O)O)c2ccn3c(C(F)(F)F)nnc3c2C)cc1CN1CC2(COC2)Oc2ncccc2S1(=O)=O (stereo not shown) [Example 259, 3-(3-((1′,1′-Dioxidospiro[oxetane-3,4′-pyrido[2,3-b][1,4,5]oxathiazepin]-2′(3′H)-yl)methyl)-4-methylphenyl)-3-(8-methyl-3-(trifluoromethyl)-[1,2,4]triazolo[4,3-a]pyridin-7-yl)propanoic Acid] | 201
5 | < 1 | Cc1ccc(C(CC(=O)O)c2ccn3c(C(F)(F)F)nnc3c2C)cc1CN1C[C@H]2CCCN2c2ncccc2S1(=O)=O (stereo partly drawn) [Example 264, 3-(3-(((R)-5,5-Dioxido-7a,8,9,10-tetrahydropyrido[2,3-f]pyrrolo[2,1-d][1,2,5]thiadiazepin-6(7H)-yl)methyl)-4-methylphenyl)-3-(8-methyl-3-(trifluoromethyl)-[1,2,4]triazolo[4,3-a]pyridin-7-yl)propanoic Acid] | 18.3
6 | < 1 | Cc1ccc(C(CC(=O)O)c2ccn3c(C(F)(F)F)nnc3c2C)cc1CN1C[C@H]2CCCN2c2ccccc2S1(=O)=O (stereo partly drawn) [Example 265, 3-(3-(((R)-5,5-Dioxido-7a,8,9,10-tetrahydrobenzo[f]pyrrolo[2,1-d][1,2,5]thiadiazepin-6(7H)-yl)methyl)-4-methylphenyl)-3-(8-methyl-3-(trifluoromethyl)-[1,2,4]triazolo[4,3-a]pyridin-7-yl)propanoic Acid] | 31.2
7 | < 1 | Cc1ccc(C(CC(=O)O)c2ccn3c(C(F)(F)F)nnc3c2C)cc1CN1CC(C)(C)Oc2ncccc2S1(=O)=O (stereo not shown) [Example 268, 3-(3-((4,4-Dimethyl-1,1-dioxido-3,4-dihydro-2H-pyrido[2,3-b][1,4,5]oxathiazepin-2-yl)methyl)-4-methylphenyl)-3-(8-methyl-3-(trifluoromethyl)-[1,2,4]triazolo[4,3-a]pyridin-7-yl)propanoic Acid] | 516
8 | < 1 | CCc1nnc2c(C)c(C(CC(=O)O)c3ccc(C)c(CN4C[C@H]5CCCN5c5ccccc5S4(=O)=O)c3)ccn12 (stereo partly drawn) [Example 278, 3-(3-(((R)-5,5-Dioxido-7a,8,9,10-tetrahydrobenzo[f]pyrrolo[2,1-d][1,2,5]thiadiazepin-6(7H)-yl)methyl)-4-methylphenyl)-3-(3-ethyl-8-methyl-[1,2,4]triazolo[4,3-a]pyridin-7-yl)propanoic Acid] | 467
9 | < 1 | CCc1nnc2c(C)c(C(CC(=O)O)c3ccc(C)c(CN4C[C@H]5CCCN5c5ncccc5S4(=O)=O)c3)ccn12 (stereo partly drawn) [Example 281, 3-(3-(((R)-5,5-Dioxido-7a,8,9,10-tetrahydropyrido[2,3-f]pyrrolo[2,1-d][1,2,5]thiadiazepin-6(7H)-yl)methyl)-4-methylphenyl)-3-(3-ethyl-8-methyl-[1,2,4]triazolo[4,3-a]pyridin-7-yl)propanoic Acid] | 480
10 | < 1 | Cc1ccc(C(CC(=O)O)c2ccn3c(C(F)(F)F)nnc3c2C)cc1CN1CC2(COC2)Oc2ccccc2S1(=O)=O (stereo not shown) [Example 287, 3-(3-((1,1-Dioxidospiro[benzo[b][1,4,5]oxathiazepine-4,3′-oxetan]-2(3H)-yl)methyl)-4-methylphenyl)-3-(8-methyl-3-(trifluoromethyl)-[1,2,4]triazolo[4,3-a]pyridin-7-yl)propanoic Acid] | 28.1
11 | < 1 | CCn1nnc2c(C)c(C(CC(=O)O)c3ccc(C)c(CN4C[C@H]5CCCN5c5ncccc5S4(=O)=O)n3)ccc21 (stereo partly drawn) [Example 296, 3-(6-(((R)-5,5-Dioxido-7a,8,9,10-tetrahydropyrido[2,3-f]pyrrolo[2,1-d][1,2,5]thiadiazepin-6(7H)-yl)methyl)-5-methylpyridin-2-yl)-3-(1-ethyl-4-methyl-1H-benzo[d][1,2,3]triazol-5-yl)propanoic Acid] | 13.6
12 | < 1 | Cc1ccc(C(c2ccc3c(nnn3CC3CC3)c2C)C(C)(C)C(=O)O)nc1CN1CC2(CCOCC2)Oc2nc(OCCN3CCOCC3)ccc2S1(=O)=O (stereo not shown) [Example 327, 3-(1-(Cyclopropylmethyl)-4-methyl-1H-benzo[d][1,2,3]triazol-5-yl)-2,2-dimethyl-3-(5-methyl-6-((7′-(2-morpholinoethoxy)-1′,1′-dioxido-2,3,5,6-tetrahydrospiro[pyran-4,4′-pyrido[2,3-b][1,4,5]oxathiazepin]-2′(3′H)-yl)methyl)pyridin-2-yl)propanoic Acid] | 6.9
13 | < 1 | Cc1ccc(C(CC(=O)O)c2ccc3c(nnn3CC3CC3)c2C)cc1CN1C[C@H]2CCCN2c2ncccc2S1(=O)=O (stereo partly drawn) [Example 400, 3-(1-(cyclopropylmethyl)-4-methyl-1H-benzo[d][1,2,3]triazol-5-yl)-3-(3-(((R)-5,5-dioxido-7a,8,9,10-tetrahydropyrido[2,3-f]pyrrolo[2,1-d][1,2,5]thiadiazepin-6(7H)-yl)methyl)-4-methylphenyl)propanoic acid] | 4.1
14 | < 1 | Cc1ccc(C(CC(=O)O)c2ccn3c(C(F)(F)F)nnc3c2C)cc1CN1CC2CCC(F)(F)CN2c2ncccc2S1(=O)=O (stereo not shown) [Example 452, 3-(3-((10,10-Difluoro-5,5-dioxido-7,7a,8,9,10,11-hexahydro-6H-dipyrido[2,1-d:2′,3′-f][1,2,5]thiadiazepin-6-yl)methyl)-4-methylphenyl)-3-(8-methyl-3-(trifluoromethyl)-[1,2,4]triazolo[4,3-a]pyridin-7-yl)propanoic Acid] | 116
15 | < 1 | Cc1ccc(C(CC(=O)O)c2ccn3c(C(F)F)nnc3c2C)cc1CN1CC2(COC2)Oc2ccccc2S1(=O)=O (stereo not shown) [Example 466, 3-(3-(Difluoromethyl)-8-methyl-[1,2,4]triazolo[4,3-a]pyridin-7-yl)-3-(3-((1,1-dioxidospiro[benzo[b][1,4,5]oxathiazepine-4,3′-oxetan]-2(3H)-yl)methyl)-4-methylphenyl)propanoic Acid] | 124
16 | < 1 | Cc1ccc(C(CC(=O)O)c2ccn3c(C(F)F)nnc3c2C)cc1CN1CC2(COC2)Oc2ncccc2S1(=O)=O (stereo not shown) [Example 469, 3-(3-(Difluoromethyl)-8-methyl-[1,2,4]triazolo[4,3-a]pyridin-7-yl)-3-(3-((1′,1′-dioxidospiro[oxetane-3,4′-pyrido[2,3-b][1,4,5]oxathiazepin]-2′(3′H)-yl)methyl)-4-methylphenyl)propanoic Acid] | 608
17 | < 1 | Cc1ccc(C(CC(=O)O)c2ccn3c(C(F)F)nnc3c2C)cc1CN1CC2(CC2)Oc2ncccc2S1(=O)=O (stereo not shown) [Example 472, 3-(3-(Difluoromethyl)-8-methyl-[1,2,4]triazolo[4,3-a]pyridin-7-yl)-3-(3-((1′,1′-dioxidospiro[cyclopropane-1,4′-pyrido[2,3-b][1,4,5]oxathiazepin]-2′(3′H)-yl)methyl)-4-methylphenyl)propanoic Acid] | 245
18 | < 1 | Cc1ccc(C(CC(=O)O)c2ccn3c(C(F)(F)F)nnc3c2C)nc1CN1CC2(COC2)Oc2ccccc2S1(=O)=O (stereo not shown) [Example 484, 3-(6-((1,1-Dioxidospiro[benzo[b][1,4,5]oxathiazepine-4,3′-oxetan]-2(3H)-yl)methyl)-5-methylpyridin-2-yl)-3-(8-methyl-3-(trifluoromethyl)-[1,2,4]triazolo[4,3-a]pyridin-7-yl)propanoic Acid] | 226
19 | < 1 | Cc1ccc(C(CC(=O)O)c2ccn3c(C(F)(F)F)nnc3c2C)nc1CN1CC2(COC2)Oc2ncccc2S1(=O)=O (stereo not shown) [Example 493, 3-(6-((1′,1′-Dioxidospiro[oxetane-3,4′-pyrido[2,3-b][1,4,5]oxathiazepin]-2′(3′H)-yl)methyl)-5-methylpyridin-2-yl)-3-(8-methyl-3-(trifluoromethyl)-[1,2,4]triazolo[4,3-a]pyridin-7-yl)propanoic Acid] | 1230
20 | < 1 | Cc1ccc(C(CC(=O)O)c2ccn3c(C(F)(F)F)nnc3c2C)nc1CN1CC2(CC2)Oc2ncc(F)cc2S1(=O)=O (stereo not shown) [Example 508, 3-(6-((8′-Fluoro-1′,1′-dioxidospiro[cyclopropane-1,4′-pyrido[2,3-b][1,4,5]oxathiazepin]-2′(3′H)-yl)methyl)-5-methylpyridin-2-yl)-3-(8-methyl-3-(trifluoromethyl)-[1,2,4]triazolo[4,3-a]pyridin-7-yl)propanoic Acid] | 92.7

— patent US10947252B2, “Inhibitors of KEAP1-Nrf2 protein-protein interaction” (Janssen Pharmaceutica NV, priority 2018, dated 2021)
